Data: publication PMC5421785, “Citrullination only infrequently impacts peptide binding to HLA class II MHC” (PLoS ONE, 2017)
Square brackets hold non-standard residues; d marks the D form. Ends that are not written are not given here. Peptide text beside a SMILES is read from it. Cit = NC(=O)NCCC[C@H](N)C(=O)O

How the values were obtained:
Experiment in all cases: HLA class II peptide binding, inhibition of radiolabeled peptide binding to purified MHC; on IC50 DRB1*01:01: competition with radiolabeled peptide (0.1–1 nM); on IC50 DRB1*04:01: competition with radiolabeled peptide (0.1–1 nM)
DRB4*01:01 = biological target: T1, DRB4*01:01 (Homo sapiens, UniProt P01903+P13762, G164S); conditions: Other DR, competition with radiolabeled peptide, two-day incubation, three or more independent experiments
T1 construct: EBV transformed homozygous cell lines were used as sources of MHC molecules; endogenous in cells; host or cells: EBV transformed homozygous cell lines

DRB1*07:01 = DRB1*07:01 (Homo sapiens, UniProt P01903+P01911, A100R/A102G/A103Q/D57E/D86V/E43K/F76Y/K127E/L162R/M171V/P40G/Q125H/Q99D/R33Q/R42Y/R54Q/S133A/S66F/T210M/V115G/Y107V/Y59L/Y89S); conditions: Other DR, competition with radiolabeled peptide, two-day incubation, three or more independent experiments
DRB1*11:01 = DRB1*11:01 (Homo sapiens, UniProt P01903+P01911, A100R/A169T/A87E/I96F/K41T/L162R/M171V/P40S/Q125H/Q178H/Q39Y/Q99D/R42S/S66Y/T262R/V115G/W38E); conditions: SE-, competition with radiolabeled peptide, two-day incubation, three or more independent experiments
DRB1*10:01 = DRB1*10:01 (Homo sapiens, UniProt P01903+P01911, A100R/A169T/D57E/F55L/F60V/F69Y/F76Y/I96L/L162R/M171V/P40V/Q260P/Q39E/Q99R/R195Q/R42F/S149N/S66Y/T210M/V115G/V67A/W38E/Y59R/Y61H); conditions: SE+, competition with radiolabeled peptide, two-day incubation, three or more independent experiments
DRB1*08:02 = DRB1*08:02 (Homo sapiens, UniProt P01903+P01911, A100R/A103L/A169T/F76Y/H45Y/I96F/K41T/L162R/M171V/P40S/Q125H/Q178H/Q39Y/Q99D/R218S/R42G/S66Y/V115G/W38E); conditions: Other DR, competition with radiolabeled peptide, two-day incubation, three or more independent experiments
DRB5*01:01 = biological target: T2, DRB5*01:01 (Homo sapiens, UniProt P01903+Q30154); conditions: Other DR, competition with radiolabeled peptide, two-day incubation, three or more independent experiments
T2 construct: EBV transformed homozygous cell lines were used as sources of MHC molecules; endogenous in cells; host or cells: EBV transformed homozygous cell lines

DPB1*04:01 = biological target: T3, DPB1*04:01 (Homo sapiens, UniProt P04440+P20036); conditions: DP; purified MHC, competition with radiolabeled peptide, two-day incubation, three or more independent experiments
T3 construct: EBV transformed homozygous cell lines were used as sources of MHC molecules; endogenous in cells; host or cells: EBV transformed homozygous cell lines
T3 sequence (P04440 30-258): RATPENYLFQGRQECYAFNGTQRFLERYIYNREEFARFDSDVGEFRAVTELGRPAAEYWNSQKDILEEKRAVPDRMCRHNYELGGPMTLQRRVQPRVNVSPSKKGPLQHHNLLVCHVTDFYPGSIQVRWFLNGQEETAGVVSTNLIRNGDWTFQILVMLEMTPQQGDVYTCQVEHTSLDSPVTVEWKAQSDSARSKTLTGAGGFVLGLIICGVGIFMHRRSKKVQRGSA
T3 sequence (P20036 29-260 partner): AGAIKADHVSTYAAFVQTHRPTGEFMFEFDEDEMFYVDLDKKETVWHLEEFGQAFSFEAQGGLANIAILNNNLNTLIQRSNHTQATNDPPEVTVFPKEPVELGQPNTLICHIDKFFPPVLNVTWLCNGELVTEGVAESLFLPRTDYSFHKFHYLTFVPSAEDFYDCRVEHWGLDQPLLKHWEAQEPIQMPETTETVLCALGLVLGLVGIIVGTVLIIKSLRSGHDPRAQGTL

HLA-DRB1*04:01 = biological target: T4, HLA-DRB1*04:01 (Homo sapiens, UniProt P01903+P01911, A100K/A169T/F76Y/I96L/K127E/L162R/M171V/N62H/P40V/Q125Y/R42H/S133A/S149N/S66Y/V115G/V209L/W38E); conditions: read-out: IC50 DRB1*04:01; further: competition with radiolabeled peptide (0.1–1 nM)
T4 construct: EBV transformed homozygous cell lines were used as sources of MHC molecules; endogenous in cells; host or cells: EBV transformed homozygous cell lines

DRB1*16:02 = DRB1*16:02 (Homo sapiens, UniProt P01903+P01911, A100R/F76Y/I96L/Q99D/V115G); conditions: SE-, competition with radiolabeled peptide, two-day incubation, three or more independent experiments
DRB1*04:02 = DRB1*04:02 (Homo sapiens, UniProt P01903+P01911, A100E/A169T/F76Y/K127E/L162R/M171V/N62H/P40V/Q125Y/Q99D/R42H/S133A/S149N/S66Y/V209L/W38E); conditions: SE-, competition with radiolabeled peptide, two-day incubation, three or more independent experiments
DQB1*03:01 = DQB1*03:01 (Homo sapiens, UniProt P01909+P01920); conditions: DQ, competition with radiolabeled peptide, two-day incubation, three or more independent experiments
DRB1*13:02 = DRB1*13:02 (Homo sapiens, UniProt P01903+P01911, A100E/A169T/K41T/L162R/M171V/P40S/Q125H/Q178H/Q39Y/Q99D/R42S/S66N/T262R/V115G/W38E/Y61H); conditions: SE-, competition with radiolabeled peptide, two-day incubation, three or more independent experiments
DRB1*04:05 = DRB1*04:05 (Homo sapiens, UniProt P01903+P01911, A100R/A169T/D86S/F76Y/I96L/K127E/L162R/M171V/N62H/P40V/Q125Y/R42H/S133A/S149N/S66Y/V115G/V209L/W38E); conditions: SE+, competition with radiolabeled peptide, two-day incubation, three or more independent experiments
DRB1*03:01 = DRB1*03:01 (Homo sapiens, UniProt P01903+P01911, A100K/A102G/A103R/A169T/F55Y/I96L/K41T/L162R/M171V/P40S/Q125H/Q178H/Q39Y/R42S/S66N/T106N/T262R/W38E/Y61H); conditions: Other DR, competition with radiolabeled peptide, two-day incubation, three or more independent experiments
DRB3*02:02 = DRB3*02:02 (Homo sapiens, UniProt P01903+P79483, A212P/D57E/F66Y/L67A/R103Q/R218S/R40L/S89Y/T80R/V86D/Y55F/Y59H); conditions: Other DR, competition with radiolabeled peptide, two-day incubation, three or more independent experiments
DRB1*15:01 = biological target: T5, DRB1*15:01 (Homo sapiens, UniProt P01903+P01911); conditions: SE-, competition with radiolabeled peptide, two-day incubation, three or more independent experiments
T5 construct: EBV transformed homozygous cell lines were used as sources of MHC molecules; endogenous in cells; host or cells: EBV transformed homozygous cell lines

DRB1*09:01 = DRB1*09:01 (Homo sapiens, UniProt P01903+P01911, A100R/A103E/D57H/D86V/F55Y/F60I/F76Y/I96F/K127E/L162R/M171V/P40D/Q125H/Q99R/R33Q/R42F/S133A/S66N/T210M/V115G/W38K/Y107V/Y59G/Y89S); conditions: Other DR, competition with radiolabeled peptide, two-day incubation, three or more independent experiments
HLA-DRB1*01:01 = biological target: T6, HLA-DRB1*01:01 (Homo sapiens, UniProt P01903+P01911, A100R/D57E/F55L/F60I/F76Y/I96L/L162R/M171V/P40L/Q125E/R42F/V115G/Y59C); conditions: read-out: IC50 DRB1*01:01; further: competition with radiolabeled peptide (0.1–1 nM)
T6 construct: EBV transformed homozygous cell lines were used as sources of MHC molecules; endogenous in cells; host or cells: EBV transformed homozygous cell lines

DRB3*01:01 = biological target: T7, DRB3*01:01 (Homo sapiens, UniProt P01903+P79483); conditions: Other DR, competition with radiolabeled peptide, two-day incubation, three or more independent experiments
T7 construct: EBV transformed homozygous cell lines were used as sources of MHC molecules; endogenous in cells; host or cells: EBV transformed homozygous cell lines

DRB1*04:04 = DRB1*04:04 (Homo sapiens, UniProt P01903+P01911, A100R/A169T/F76Y/I96L/K127E/L162R/M171V/N62H/P40V/Q125Y/R42H/S133A/S149N/S66Y/V209L/W38E); conditions: SE+, competition with radiolabeled peptide, two-day incubation, three or more independent experiments
DRB1*12:01 = DRB1*12:01 (Homo sapiens, UniProt P01903+P01911, A100R/A169T/D57E/D86V/F55L/H45Y/K41T/L162R/M171V/P40S/Q125H/Q178H/Q39Y/Q99D/R42G/S66L/T262R/V114A/V67L/W38E/Y59H/Y61H/Y89S); conditions: SE-, competition with radiolabeled peptide, two-day incubation, three or more independent experiments

Chain of DQB1*03:01 (P01920 33-261, other chains not shown): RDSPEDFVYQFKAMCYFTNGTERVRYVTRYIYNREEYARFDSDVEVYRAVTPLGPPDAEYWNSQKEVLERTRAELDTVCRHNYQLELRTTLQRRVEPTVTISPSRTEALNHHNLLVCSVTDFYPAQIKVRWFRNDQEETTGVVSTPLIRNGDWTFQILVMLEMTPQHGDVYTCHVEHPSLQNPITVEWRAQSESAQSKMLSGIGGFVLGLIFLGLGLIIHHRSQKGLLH

CC[C@H](C)[C@H](NC(=O)[C@H](CCCNC(N)=O)NC(=O)[C@H](CC(N)=O)NC(=O)[C@@H](NC(=O)[C@H](Cc1ccccc1)NC(=O)[C@H](CC(=O)O)NC(=O)[C@H](CCC(N)=O)NC(=O)[C@@H](N)CC(N)=O)[C@@H](C)O)C(=O)N[C@@H](CC(N)=O)C(=O)N[C@@H](CCCCN)C(=O)N[C@@H](CC(C)C)C(=O)N[C@@H](CCCCN)C(=O)N[C@@H](CC(N)=O)C(=O)N[C@@H](CO)C(=O)O [Fibrinogen 78–91 Cit] (H-NQDFTN[Cit]INKLKNS-OH)
IC50 (DRB4*01:01): 12.7 µM | IC50 (DRB1*07:01): > 30 µM | IC50 (DRB1*11:01): > 30 µM | IC50 (DRB1*10:01): 8.48 µM | IC50 (DRB1*08:02): 35.7 µM | IC50 (DRB5*01:01): 0.0092 µM | IC50 (DPB1*04:01): > 30 µM | IC50 (HLA-DRB1*04:01): 12.9 µM | IC50 (DRB1*16:02): 15.3 µM | IC50 (DRB1*04:02): > 30 µM | IC50 (DQB1*03:01): > 30 µM | IC50 (DRB1*13:02): > 30 µM | IC50 (DRB1*04:05): 11.3 µM | IC50 (DRB1*03:01): > 30 µM | IC50 (DRB3*02:02): > 30 µM | IC50 (DRB1*15:01): > 30 µM | IC50 (DRB1*09:01): > 30 µM | IC50 (HLA-DRB1*01:01): 15.7 µM | IC50 (DRB3*01:01): > 30 µM | IC50 (DRB1*04:04): 2.32 µM | IC50 (DRB1*12:01): 9.38 µM

CC(C)C[C@H](NC(=O)[C@H](CCCNC(=N)N)NC(=O)[C@@H](NC(=O)[C@H](C)NC(=O)[C@@H](N)CO)C(C)C)C(=O)N[C@@H](CCCNC(N)=O)C(=O)N[C@@H](CO)C(=O)N[C@@H](CO)C(=O)N[C@H](C(=O)N1CCC[C@H]1C(=O)NCC(=O)N[C@H](C(=O)N[C@@H](CCCNC(=N)N)C(=O)O)C(C)C)C(C)C [Vimentin 66–78 Cit] (H-SAVRL[Cit]SSVPGVR-OH)
IC50 (DRB4*01:01): 0.004 µM | IC50 (DRB1*07:01): 7.31 µM | IC50 (DRB1*11:01): 8.92 µM | IC50 (DRB1*10:01): 0.035 µM | IC50 (DRB1*08:02): 0.275 µM | IC50 (DRB5*01:01): 1.36 µM | IC50 (DPB1*04:01): > 30 µM | IC50 (HLA-DRB1*04:01): 0.0018 µM | IC50 (DRB1*16:02): 0.118 µM | IC50 (DRB1*04:02): 0.014 µM | IC50 (DQB1*03:01): 2.01 µM | IC50 (DRB1*13:02): 15 µM | IC50 (DRB1*04:05): 0.054 µM | IC50 (DRB1*03:01): 25.9 µM | IC50 (DRB3*02:02): > 30 µM | IC50 (DRB1*15:01): 0.0054 µM | IC50 (DRB1*09:01): 0.353 µM | IC50 (HLA-DRB1*01:01): 0.0095 µM | IC50 (DRB3*01:01): > 30 µM | IC50 (DRB1*04:04): 0.009 µM | IC50 (DRB1*12:01): 2.22 µM

LQYMRADQAAGGLR [Collagen II 1236–1249 WT]
IC50 (DRB4*01:01): 0.08 µM | IC50 (DRB1*07:01): 29.6 µM | IC50 (DRB1*11:01): 9.86 µM | IC50 (DRB1*10:01): 0.375 µM | IC50 (DRB1*08:02): 1.04 µM | IC50 (DRB5*01:01): 8.88 µM | IC50 (DPB1*04:01): > 30 µM | IC50 (HLA-DRB1*04:01): 0.0097 µM | IC50 (DRB1*16:02): 23.1 µM | IC50 (DRB1*04:02): 0.118 µM | IC50 (DQB1*03:01): 12.8 µM | IC50 (DRB1*13:02): 3.92 µM | IC50 (DRB1*04:05): 1.77 µM | IC50 (DRB1*03:01): 0.159 µM | IC50 (DRB3*02:02): 0.262 µM | IC50 (DRB1*15:01): 1.46 µM | IC50 (DRB1*09:01): 0.315 µM | IC50 (HLA-DRB1*01:01): 0.081 µM | IC50 (DRB3*01:01): 0.068 µM | IC50 (DRB1*04:04): 0.102 µM | IC50 (DRB1*12:01): > 30 µM
